Experimental findings from US12371454B2, “Cyclic peptide compound having Kras inhibitory action” (priority 2019, dated 2025) are described below.

In general, pIC50 refers to −log10 of the IC50, conventionally taken in molar units.

The assay addresses T1, Kras and SOS1 (biotin-tagged human Kras loaded with GDP, His-tagged human SOS1) (Homo sapiens, UniProt P01116, G12D).
T1 construct: made in house; host or cells: E. coli (stated for Kras only)
Kind of assay: Protein-protein interaction inhibition between Kras and SOS1 (KrasGl2D-SOS PPI) using AlphaScreen. In kind it is binding. To be noted: AlphaScreen; biotin-tagged human Kras loaded with GDP, His-tagged human SOS1; read-out: KRAS G12D-SOS PPI IC50. Put shortly:
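Binding between SOS1 and Kras is detected as bead-proximity luminescence: illuminate Ni-conjugated donors (680 nm), collect 520-620 nm emission from streptavidin-conjugated acceptors; Kras carries biotin and GDP loaded after purification, SOS1 carries a His tag.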

pIC50: −log10 of the molar value. Positions of bridges follow the written chain, without caps; N, C: chain ends. Non-standard residues stand in square brackets, D forms with d. Residues, ends and D or L forms follow the SMILES beside them. *: point of attachment. hPhe(3-Cl-4-CF3) = N[C@@H](CCc1ccc(C(F)(F)F)c(Cl)c1)C(=O)O; hPhe(3-F,4-CF3) = N[C@@H](CCc1ccc(C(F)(F)F)c(F)c1)C(=O)O; NMePhe(4-Me) = CN[C@@H](Cc1ccc(C)cc1)C(=O)O; NMeNle(6-CHF2) = CN[C@@H](CCCCC(F)F)C(=O)O; NMeGly(cPent) = CN[C@H](C(=O)O)C1CCCC1; NMeCha = CN[C@@H](CC1CCCCC1)C(=O)O; NMeD = CN[C@@H](CC(=O)O)C(=O)O; CH2CONHtBu = CC(C)(C)NC(=O)C*; NMeL = CN[C@@H](CC(C)C)C(=O)O; NMeV = CN[C@H](C(=O)O)C(C)C; d(β3hA) = C[C@@H](N)CC(=O)O; NMeAbu = CC[C@H](NC)C(=O)O; NMeS = CN[C@@H](CO)C(=O)O; NMeA = CN[C@@H](C)C(=O)O; Piperidide = C1CCN(*)CC1; Pyrrolidide = C1CCN(*)C1; dNMeA = CN[C@H](C)C(=O)O; Ac5c = NC1(C(=O)O)CCCC1; Aze = O=C(O)[C@@H]1CCN1; Abu = CC[C@H](N)C(=O)O; CH2CMe2OH = CC(C)(O)C*; Aib = CC(C)(N)C(=O)O; Isopentyl = CC(C)CC*; NEtG = CCNCC(=O)O; Sar = CNCC(=O)O

T1 sequence (P01116 1-188 isoform P01116-2 G12D): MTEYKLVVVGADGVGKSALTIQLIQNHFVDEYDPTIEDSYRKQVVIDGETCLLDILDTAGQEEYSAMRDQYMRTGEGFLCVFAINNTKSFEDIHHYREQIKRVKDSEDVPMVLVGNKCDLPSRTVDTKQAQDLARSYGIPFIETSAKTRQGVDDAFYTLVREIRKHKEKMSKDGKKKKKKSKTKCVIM

With `CC[C@H](C)[C@@H]1NC(=O)[C@H](CC(C)C)N(C)C(=O)C[C@@H](C(=O)N2CCCC2)NC(=O)[C@H](CC(C)C)N(C)C(=O)C(C)(C)NC(=O)[C@H](CC(C)C)N(C)C(=O)[C@H](CCc2ccc(C(F)(F)F)c(F)c2)NC(=O)CN(C)C(=O)[C@H](CCCCC(F)F)N(C)C(=O)CN(C)C(=O)CN(C)C1=O` [Compound 1455] ([NMeL]I[Sar][Sar][NMeNle(6-CHF2)][Sar][hPhe(3-F,4-CF3)][NMeL][Aib][NMeL]D-Pyrrolidide; lactam N-11), the pIC50 is 7.52.

On to `CC[C@H](C)[C@@H]1NC(=O)[C@H](CC(C)C)N(C)C(=O)C[C@@H](C(=O)N2CCCCC2)N(C)C(=O)[C@H](CC(C)C)N(C)C(=O)C(C)(C)NC(=O)[C@H](CC(C)C)N(C)C(=O)[C@H](CCc2ccc(C(F)(F)F)c(F)c2)NC(=O)CN(C)C(=O)[C@H](CCCCC(F)F)N(C)C(=O)CN(C)C(=O)CN(C)C1=O` [Compound 1456] ([NMeL]I[Sar][Sar][NMeNle(6-CHF2)][Sar][hPhe(3-F,4-CF3)][NMeL][Aib][NMeL][NMeD]-Piperidide; lactam N-11), for which the pIC50 is 7.92.

Consider `CC[C@@H]1NC(=O)[C@H]([C@@H](C)CC)NC(=O)[C@H](CC(C)C)N(C)C(=O)C[C@@H](C)NC(=O)[C@H](C(C)C)N(C)C(=O)C2(CCCC2)NC(=O)[C@@H]2CCCN2C(=O)[C@H](CCc2ccc(C(F)(F)F)c(Cl)c2)NC(=O)CN(C)C(=O)[C@H](CC2CCCCC2)N(C)C(=O)CN(C)C1=O` [Compound 1459] (cyclo([Abu][Sar][NMeCha][Sar][hPhe(3-Cl-4-CF3)]P[Ac5c][NMeV][d(β3hA)][NMeL]I)), for which the pIC50 was 6.54.

As to `CC[C@H](C)[C@@H]1NC(=O)[C@H](C)N(C)C(=O)C[C@@H](C)NC(=O)[C@H](C2CCCC2)N(C)C(=O)C2(CCCC2)NC(=O)[C@@H]2CCCN2C(=O)[C@H](CCc2ccc(C(F)(F)F)c(Cl)c2)NC(=O)[C@@H](C)N(C)C(=O)[C@H](Cc2ccc(C)cc2)N(C)C(=O)CN(C)C(=O)CN(C)C1=O` [Compound 1465] (cyclo([Ac5c][NMeGly(cPent)][d(β3hA)][NMeA]I[Sar][Sar][NMePhe(4-Me)][dNMeA][hPhe(3-Cl-4-CF3)]P)), the pIC50 was 7.29.

Take `CC[C@H](C)[C@@H]1NC(=O)[C@H](CC(C)C)N(C)C(=O)C[C@@H](C)NC(=O)[C@H](CC(C)C)N(C)C(=O)C(C)(C)NC(=O)[C@H](COCC(=O)NC(C)(C)C)N(C)C(=O)[C@H](CCc2ccc(C(F)(F)F)c(Cl)c2)NC(=O)CN(C)C(=O)[C@H](COCCC(C)C)N(C)C(=O)CN(C)C(=O)CN(C)C1=O` [Compound 1467] (cyclo([Aib][NMeL][d(β3hA)][NMeL]I[Sar][Sar][NMeS](Isopentyl)[Sar][hPhe(3-Cl-4-CF3)][NMeS](CH2CONHtBu))): the pIC50 is 6.92.

`CC[C@H](C)[C@@H]1NC(=O)[C@H](CC(C)C)N(C)C(=O)C[C@@H](C)NC(=O)[C@H](CC)N(C)C(=O)C2(CCCC2)NC(=O)[C@@H]2CCCN2C(=O)[C@H](CCc2ccc(C(F)(F)F)c(F)c2)NC(=O)CN(C)C(=O)[C@H](CC2CCCCC2)N(C)C(=O)CN(C)C(=O)CN(C)C1=O` [Compound 1469] (cyclo([Ac5c][NMeAbu][d(β3hA)][NMeL]I[Sar][Sar][NMeCha][Sar][hPhe(3-F,4-CF3)]P)): the pIC50 is 6.64.

Regarding `CC[C@H](C)[C@@H]1NC(=O)[C@H](CC(C)C)N(C)C(=O)C[C@@H](C)NC(=O)[C@H](CC(C)C)N(C)C(=O)C(C)(C)NC(=O)[C@H](COCC(C)(C)O)N(C)C(=O)[C@H](CCc2ccc(C(F)(F)F)c(Cl)c2)NC(=O)CN(C)C(=O)[C@H](COCCC(C)C)N(C)C(=O)[C@@H]2CCN2C(=O)CN(CC)C1=O` [Compound 1472] (cyclo([Aib][NMeL][d(β3hA)][NMeL]I[NEtG][Aze][NMeS](Isopentyl)[Sar][hPhe(3-Cl-4-CF3)][NMeS](CH2CMe2OH))), the pIC50 is 7.17.

Regarding `CC[C@H](C)[C@@H]1NC(=O)[C@H](C)N(C)C(=O)C[C@@H](C)NC(=O)[C@H](C2CCCC2)N(C)C(=O)C2(CCCC2)NC(=O)[C@@H]2CCCN2C(=O)[C@H](CCc2ccc(C(F)(F)F)c(Cl)c2)NC(=O)CN(C)C(=O)[C@H](CC2CCCCC2)N(C)C(=O)CN(C)C(=O)CN(C)C1=O` [Compound 1478] (cyclo([Ac5c][NMeGly(cPent)][d(β3hA)][NMeA]I[Sar][Sar][NMeCha][Sar][hPhe(3-Cl-4-CF3)]P)), the negative logarithm of the IC50 (pIC50) is 8.52.

Regarding `CC[C@H](C)[C@@H]1NC(=O)[C@H](C)N(C)C(=O)C[C@@H](C)NC(=O)[C@H](C2CCCC2)N(C)C(=O)C2(CCCC2)NC(=O)[C@@H]2CCCN2C(=O)[C@H](CCc2ccc(C(F)(F)F)c(Cl)c2)NC(=O)[C@H]2CCCN2C(=O)[C@H](CC2CCCCC2)N(C)C(=O)[C@@H]2CCN2C(=O)CN(C)C1=O` [Compound 1479] (cyclo([Ac5c][NMeGly(cPent)][d(β3hA)][NMeA]I[Sar][Aze][NMeCha][dP][hPhe(3-Cl-4-CF3)]P)), the pIC50 was 6.92.

Regarding `CC[C@H](C)[C@@H]1NC(=O)[C@H](CC(C)C)N(C)C(=O)C[C@@H](C(=O)N2CCCCC2)N(C)C(=O)[C@H](CC(C)C)N(C)C(=O)C(C)(C)NC(=O)[C@H](COCC(=O)NC(C)(C)C)N(C)C(=O)[C@H](CCc2ccc(C(F)(F)F)c(Cl)c2)NC(=O)CN(C)C(=O)[C@H](COCCC(C)C)N(C)C(=O)CN(C)C(=O)CN(C)C1=O` [Compound 1480] ([NMeL]I[Sar][Sar][NMeS](Isopentyl)[Sar][hPhe(3-Cl-4-CF3)][NMeS](CH2CONHtBu)[Aib][NMeL][NMeD]-Piperidide; lactam N-11), the pIC50 is 8.05.

Take `CC[C@H](C)[C@@H]1NC(=O)[C@H](CC(C)C)N(C)C(=O)C[C@@H](C)NC(=O)[C@H](CC(C)C)N(C)C(=O)C(C)(C)NC(=O)[C@H](COCC(C)(C)O)N(C)C(=O)[C@H](CCc2ccc(C(F)(F)F)c(Cl)c2)NC(=O)CN(C)C(=O)[C@H](COCCC(C)C)N(C)C(=O)CN(CC)C(=O)CN(C)C1=O` [Compound 1484] (cyclo([Aib][NMeL][d(β3hA)][NMeL]I[Sar][NEtG][NMeS](Isopentyl)[Sar][hPhe(3-Cl-4-CF3)][NMeS](CH2CMe2OH))): the pIC50 was 6.72.

For the molecule `CC[C@H](C)[C@@H]1NC(=O)[C@H](CC(C)C)N(C)C(=O)C[C@@H](C)NC(=O)[C@H](C2CCCC2)N(C)C(=O)C2(CCCC2)NC(=O)[C@@H]2CCCN2C(=O)[C@H](CCc2ccc(C(F)(F)F)c(Cl)c2)NC(=O)[C@H]2CCCN2C(=O)[C@H](Cc2ccc(C)cc2)N(C)C(=O)CN(C)C(=O)CN(C)C1=O` [Compound 1487] (cyclo([Ac5c][NMeGly(cPent)][d(β3hA)][NMeL]I[Sar][Sar][NMePhe(4-Me)][dP][hPhe(3-Cl-4-CF3)]P)), the pIC50 is 6.47.

Turning to `CC[C@H](C)[C@@H]1NC(=O)[C@H](CC(C)C)N(C)C(=O)C[C@@H](C)NC(=O)[C@H](C2CCCC2)N(C)C(=O)C2(CCCC2)NC(=O)[C@@H]2CCCN2C(=O)[C@H](CCc2ccc(C(F)(F)F)c(Cl)c2)NC(=O)[C@H]2CCCN2C(=O)[C@H](Cc2ccc(C)cc2)N(C)C(=O)[C@@H]2CCN2C(=O)CN(C)C1=O` [Compound 1488] (cyclo([Ac5c][NMeGly(cPent)][d(β3hA)][NMeL]I[Sar][Aze][NMePhe(4-Me)][dP][hPhe(3-Cl-4-CF3)]P)), the pIC50 was 6.59.
